Measurements as given in ChEMBL document CHEMBL3046000, “Design and synthesis of 1-(benzothiazol-5-yl)-1H-1,2,4-triazol-5-ones as protoporphyrinogen oxidase inhibitors” (Bioorg Med Chem, 2013).

Assays:
Amaranthus retroflexus [1] = assay: Post emergence herbicidal activity against Amaranthus retroflexus seedlings assessed as plant growth inhibition at 150 g ai/ha measured 15 days after compound treatment under greenhouse conditions; type: functional; conditions: 360 h, read-out: GI
Echinochloa crus-galli [2] = assay: Post emergence herbicidal activity against Echinochloa crus-galli (barnyard grass) seedlings assessed as plant growth inhibition at 150 g ai/ha measured 15 days after compound treatment under greenhouse conditions; type: functional; conditions: 360 h, read-out: GI
[3] = molecular target: T1, Protoporphyrinogen oxidase, chloroplastic (Nicotiana tabacum, UniProt O24163); assay: Inhibition of Nicotiana tabacum (tobacco) recombinant PPO assessed as protoporphyrin IX formation at room temperature by fluorimetric assay
T1 sequence (O24163 whole entry): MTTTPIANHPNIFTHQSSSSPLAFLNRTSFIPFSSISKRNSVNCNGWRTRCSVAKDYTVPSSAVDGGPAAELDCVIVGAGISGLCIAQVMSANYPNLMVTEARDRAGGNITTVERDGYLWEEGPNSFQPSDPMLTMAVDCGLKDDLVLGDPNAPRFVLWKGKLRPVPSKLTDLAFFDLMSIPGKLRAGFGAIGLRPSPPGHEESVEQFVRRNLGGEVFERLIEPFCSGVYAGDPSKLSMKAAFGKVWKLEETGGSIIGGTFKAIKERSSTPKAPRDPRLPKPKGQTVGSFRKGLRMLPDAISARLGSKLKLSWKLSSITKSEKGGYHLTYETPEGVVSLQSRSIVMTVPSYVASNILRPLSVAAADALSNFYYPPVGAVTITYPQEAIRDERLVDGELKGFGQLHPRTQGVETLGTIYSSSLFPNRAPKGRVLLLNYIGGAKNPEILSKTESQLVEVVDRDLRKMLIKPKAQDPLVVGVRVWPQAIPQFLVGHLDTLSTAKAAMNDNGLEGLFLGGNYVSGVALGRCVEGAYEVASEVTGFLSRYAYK

Chenopodium album [4] = assay: Post-emergence herbicidal activity against Chenopodium album seedlings assessed as plant growth inhibition at 150 g ai/ha measured 15 days after compound treatment under greenhouse conditions; type: functional; conditions: 360 h, read-out: GI
Setaria faberi [5] = assay: Post-emergence herbicidal activity against Setaria faberi (Giant Foxtail) seedlings assessed as plant growth inhibition at 150 g ai/ha measured 15 days after compound treatment under greenhouse conditions; type: functional; conditions: 360 h, read-out: GI
Digitaria sanguinalis [6] = assay: Post-emergence herbicidal activity against Digitaria sanguinalis (hairy crabgrass) seedlings assessed as plant growth inhibition at 150 g ai/ha measured 15 days after compound treatment under greenhouse conditions; type: functional; conditions: 360 h, read-out: GI
Brassica juncea [7] = assay: Post-emergence herbicidal activity against Brassica juncea seedlings assessed as plant growth inhibition at 150 g ai/ha measured 15 days after compound treatment under greenhouse conditions; type: functional; conditions: 360 h, read-out: GI
Brassica juncea [8] = assay: Post-emergence herbicidal activity against Brassica juncea seedlings assessed as plant growth inhibition at 75 g ai/ha measured 15 days after compound treatment under greenhouse conditions; type: functional; conditions: 360 h, read-out: GI
Amaranthus retroflexus [9] = assay: Post emergence herbicidal activity against Amaranthus retroflexus seedlings assessed as plant growth inhibition at 75 g ai/ha measured 15 days after compound treatment under greenhouse conditions; type: functional; conditions: 360 h, read-out: GI
Echinochloa crus-galli [10] = assay: Post emergence herbicidal activity against Echinochloa crus-galli (barnyard grass) seedlings assessed as plant growth inhibition at 75 g ai/ha measured 15 days after compound treatment under greenhouse conditions; type: functional; conditions: 360 h, read-out: GI
Brassica juncea [11] = assay: Post-emergence herbicidal activity against Brassica juncea seedlings assessed as plant growth inhibition at 37.5 g ai/ha measured 15 days after compound treatment under greenhouse conditions; type: functional; conditions: 360 h, read-out: GI
Setaria faberi [12] = assay: Post-emergence herbicidal activity against Setaria faberi (Giant Foxtail) seedlings assessed as plant growth inhibition at 75 g ai/ha measured 15 days after compound treatment under greenhouse conditions; type: functional; conditions: 360 h, read-out: GI
Digitaria sanguinalis [13] = assay: Post-emergence herbicidal activity against Digitaria sanguinalis (hairy crabgrass) seedlings assessed as plant growth inhibition at 37.5 g ai/ha measured 15 days after compound treatment under greenhouse conditions; type: functional; conditions: 360 h, read-out: GI
Echinochloa crus-galli [14] = assay: Post emergence herbicidal activity against Echinochloa crus-galli (barnyard grass) seedlings assessed as plant growth inhibition at 37.5 g ai/ha measured 15 days after compound treatment under greenhouse conditions; type: functional; conditions: 360 h, read-out: GI
Chenopodium album [15] = assay: Post-emergence herbicidal activity against Chenopodium album seedlings assessed as plant growth inhibition at 75 g ai/ha measured 15 days after compound treatment under greenhouse conditions; type: functional; conditions: 360 h, read-out: GI
Amaranthus retroflexus [16] = assay: Post emergence herbicidal activity against Amaranthus retroflexus seedlings assessed as plant growth inhibition at 37.5 g ai/ha measured 15 days after compound treatment under greenhouse conditions; type: functional; conditions: 360 h, read-out: GI
Digitaria sanguinalis [17] = assay: Post-emergence herbicidal activity against Digitaria sanguinalis (hairy crabgrass) seedlings assessed as plant growth inhibition at 75 g ai/ha measured 15 days after compound treatment under greenhouse conditions; type: functional; conditions: 360 h, read-out: GI
Chenopodium album [18] = assay: Post-emergence herbicidal activity against Chenopodium album seedlings assessed as plant growth inhibition at 37.5 g ai/ha measured 15 days after compound treatment under greenhouse conditions; type: functional; conditions: 360 h, read-out: GI
Setaria faberi [19] = assay: Post-emergence herbicidal activity against Setaria faberi (Giant Foxtail) seedlings assessed as plant growth inhibition at 37.5 g ai/ha measured 15 days after compound treatment under greenhouse conditions; type: functional; conditions: 360 h, read-out: GI

SMILES	inhibition of growth at 150 g/ha (Amaranthus retroflexus [1])	inhibition of growth at 150 g/ha (Echinochloa crus-galli [2])	Ki [3]	inhibition of growth at 150 g/ha (Chenopodium album [4])	inhibition of growth at 150 g/ha (Setaria faberi [5])	inhibition of growth at 150 g/ha (Digitaria sanguinalis [6])	inhibition of growth at 150 g/ha (Brassica juncea [7])	inhibition of growth at 75 g/ha (Brassica juncea [8])	inhibition of growth at 75 g/ha (Amaranthus retroflexus [9])	inhibition of growth at 75 g/ha (Echinochloa crus-galli [10])	inhibition of growth at 37.5 g/ha (Brassica juncea [11])	inhibition of growth at 75 g/ha (Setaria faberi [12])	inhibition of growth at 37.5 g/ha (Digitaria sanguinalis [13])	inhibition of growth at 37.5 g/ha (Echinochloa crus-galli [14])	inhibition of growth at 75 g/ha (Chenopodium album [15])	inhibition of growth at 37.5 g/ha (Amaranthus retroflexus [16])	inhibition of growth at 75 g/ha (Digitaria sanguinalis [17])	inhibition of growth at 37.5 g/ha (Chenopodium album [18])	inhibition of growth at 37.5 g/ha (Setaria faberi [19])
CCCSc1nc2cc(-n3nc(C)n(C(F)F)c3=O)c(F)cc2s1	60%	60%	300 nM	< 50%	60%	80%	60%	–	–	–	–	–	–	–	–	–	–	–	–
C=CCSc1nc2cc(-n3nc(C)n(C(F)F)c3=O)c(Br)cc2s1	60%	< 50%	12800 nM	50%	60%	< 50%	50%	–	–	–	–	–	–	–	–	–	–	–	–
CCCSc1nc2cc(-n3nc(C)n(C(F)F)c3=O)c(Cl)cc2s1	60%	< 50%	2010 nM	50%	< 50%	< 50%	≥ 90%	–	–	–	–	–	–	–	–	–	–	–	–
C=CCSc1nc2cc(-n3nc(C)n(C(F)F)c3=O)c(Cl)cc2s1	60%	60%	3130 nM	< 50%	60%	< 50%	60%	–	–	–	–	–	–	–	–	–	–	–	–
Cc1nn(-c2cc3nc(SC(C)C(=O)O)sc3cc2Cl)c(=O)n1C(F)F (centres undefined)	≥ 90%	≥ 90%	6730 nM	≥ 90%	≥ 90%	≥ 90%	≥ 90%	80%	60%	< 50%	< 50%	< 50%	< 50%	< 50%	≥ 90%	< 50%	< 50%	60%	< 50%
CCCCSc1nc2cc(-n3nc(C)n(C(F)F)c3=O)c(F)cc2s1	60%	60%	210 nM	< 50%	80%	80%	60%	–	–	–	–	–	–	–	–	–	–	–	–
CCOC(=O)Sc1nc2cc(-n3nc(C)n(C(F)F)c3=O)c(Cl)cc2s1	< 50%	< 50%	–	< 50%	< 50%	< 50%	< 50%	–	–	–	–	–	–	–	–	–	–	–	–
CCOC(=O)CSc1nc2cc(-n3nc(C)n(C(F)F)c3=O)c(F)cc2s1	60%	≥ 90%	60 nM	80%	≥ 90%	≥ 90%	≥ 90%	80%	80%	50%	80%	< 50%	< 50%	< 50%	80%	80%	50%	80%	< 50%
